Experimental data taken from PubChem BioAssay (NCI).
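Cultured in 96-well plates, cells were exposed to test compound for 48 hours across five concentrations. The concentration for 50% growth inhibition is given as GI50. The concentration for full growth arrest is given as TGI.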

Tests used:
Assay in all cases: inhibition of tumour cell growth, NCI panel, 48 h
[1] = system: SK-MEL-2 melanoma
[2] = system: KM12 colon
[3] = system: SN12C renal
[4] = system: DU-145 prostate
[5] = system: HOP-92 NSCLC
[6] = system: U251 CNS
[7] = system: NCI/ADR-RES ovarian
[8] = system: PC-3 prostate
[9] = system: HS 578T breast
[10] = system: RPMI-8226 leukemia

SMILES: CC(=O)OC1COC(Oc2c(C)c3c4c(c2O)[C@@H](C)CC[C@@H]4[C@@H](C)C[C@H]3C=C(C)C)C(O)C1OC(C)=O (stereo partly drawn)
- GI50 [1]: 17.9 µM
- TGI [1]: 42.1 µM
- GI50 [2]: 17.4 µM
- TGI [2]: 36.4 µM
- GI50 [3]: 12.4 µM
- TGI [3]: 25.8 µM
- GI50 [4]: 16 µM
- TGI [4]: 32.5 µM
- GI50 [5]: 16.3 µM
- TGI [5]: 35.1 µM
- GI50 [6]: 10.4 µM
- TGI [6]: 22.5 µM
- GI50 [7]: 9.2 µM
- TGI [7]: 23.7 µM
- GI50 [8]: 11.3 µM
- TGI [8]: 25.2 µM
- GI50 [9]: 46.8 µM
- TGI [9]: > 100 µM
- GI50 [10]: 9.02 µM
- TGI [10]: 69.8 µM

SMILES: Cn1c(I)c(C#CCO[Si](C)(C)C(C)(C)C)c(=O)[nH]c1=O
- GI50 [1]: 13.9 µM
- TGI [1]: 27.7 µM
- GI50 [2]: 25.9 µM
- TGI [2]: > 61.2 µM
- GI50 [3]: 17.1 µM
- TGI [3]: 34.2 µM
- GI50 [4]: 15.3 µM
- TGI [4]: 28.6 µM
- GI50 [5]: 2.14 µM
- TGI [5]: 4.67 µM
- GI50 [6]: 17.4 µM
- TGI [6]: 31.9 µM
- GI50 [7]: 19.2 µM
- TGI [7]: 38.1 µM
- GI50 [8]: 17 µM
- TGI [8]: 32.7 µM
- GI50 [9]: 20.1 µM
- TGI [9]: 43.4 µM
- GI50 [10]: 4.39 µM
- TGI [10]: 14.2 µM

SMILES: COc1cc(Nc2ncccc2C(=O)NCc2cn(Cc3cccc(Oc4ccccc4)c3)nn2)cc(OC)c1
- GI50 [1]: 6.68 µM
- TGI [1]: > 100 µM
- GI50 [2]: 3.84 µM
- TGI [2]: > 100 µM
- GI50 [3]: 7.41 µM
- TGI [3]: > 100 µM
- GI50 [4]: 10.5 µM
- TGI [4]: > 100 µM
- GI50 [5]: 46.7 µM
- TGI [5]: > 100 µM
- GI50 [6]: 4.58 µM
- TGI [6]: > 100 µM
- GI50 [7]: 3.21 µM
- TGI [7]: > 100 µM
- GI50 [8]: 4.74 µM
- TGI [8]: > 100 µM
- GI50 [9]: > 100 µM
- TGI [9]: > 100 µM
- GI50 [10]: 5.25 µM
- TGI [10]: > 100 µM

SMILES: CC1=C(C(=O)Nc2ccc(F)c(Cl)c2)C(c2ccccc2O)NC(=S)N1 (stereo not drawn)
- GI50 [1]: 23.6 µM
- TGI [1]: > 50 µM
- GI50 [2]: > 50 µM
- TGI [2]: > 50 µM
- GI50 [3]: > 50 µM
- TGI [3]: > 50 µM
- GI50 [4]: 17.3 µM
- TGI [4]: 45.7 µM
- GI50 [5]: > 50 µM
- TGI [5]: > 50 µM
- GI50 [6]: 30.2 µM
- TGI [6]: > 50 µM
- GI50 [7]: > 50 µM
- TGI [7]: > 50 µM
- GI50 [8]: 40.6 µM
- TGI [8]: > 50 µM
- GI50 [9]: 35 µM
- TGI [9]: > 50 µM
- GI50 [10]: 21.6 µM
- TGI [10]: > 50 µM

SMILES: CCN1CCN(C(=O)[C@@]2(C)CC[C@]3(C)CC[C@]4(C)C(=CC(=O)[C@@H]5[C@@]6(C)CC[C@H](OC7C[C@@H](O)[C@@H](O)C(C)O7)C(C)(C)[C@@H]6CC[C@]54C)[C@@H]3C2)CC1 (stereo partly drawn)
- GI50 [1]: 8.95 µM
- TGI [1]: 17.9 µM
- GI50 [2]: 2.74 µM
- TGI [2]: 9.95 µM
- GI50 [3]: 0.896 µM
- TGI [3]: 1.83 µM
- GI50 [4]: 8.71 µM
- TGI [4]: 16.3 µM
- GI50 [5]: 5.25 µM
- TGI [5]: 12.5 µM
- GI50 [6]: 1.52 µM
- TGI [6]: 5.68 µM
- GI50 [7]: 2.53 µM
- TGI [7]: 12.9 µM
- GI50 [8]: 2.47 µM
- TGI [8]: 9.02 µM
- GI50 [9]: 7.52 µM
- TGI [9]: 17.8 µM
- GI50 [10]: 1.09 µM
- TGI [10]: 2.52 µM

SMILES: COc1ccccc1/C=N\N/C(N)=N\N=C\c1ccccc1OC
- GI50 [1]: 0.527 µM
- TGI [1]: 10.3 µM
- GI50 [2]: 0.264 µM
- TGI [2]: 1.36 µM
- GI50 [3]: 1.7 µM
- TGI [3]: > 46.8 µM
- GI50 [4]: 0.386 µM
- TGI [4]: 2.73 µM
- GI50 [5]: 0.578 µM
- TGI [5]: 31.6 µM
- GI50 [6]: 1.02 µM
- TGI [6]: > 39.9 µM
- GI50 [7]: 0.39 µM
- GI50 [8]: 0.476 µM
- TGI [8]: > 66.2 µM
- GI50 [9]: 0.447 µM
- TGI [9]: 38.7 µM
- GI50 [10]: 0.281 µM
- TGI [10]: 0.806 µM

SMILES: COc1cc(-c2oc(=O)ccc2C#Cc2ccccn2)cc(OC)c1OC
- GI50 [1]: 4.15 µM
- TGI [1]: > 100 µM
- GI50 [2]: 0.884 µM
- TGI [2]: > 100 µM
- GI50 [3]: 5.5 µM
- TGI [3]: > 100 µM
- GI50 [4]: 3.48 µM
- TGI [4]: > 29.5 µM
- GI50 [5]: 2.23 µM
- TGI [5]: 25.4 µM
- GI50 [6]: 3.51 µM
- TGI [6]: > 86 µM
- GI50 [7]: 1.09 µM
- GI50 [8]: 2.21 µM
- TGI [8]: > 100 µM
- GI50 [9]: 2.98 µM
- TGI [9]: > 24 µM
- GI50 [10]: 1.8 µM
- TGI [10]: 9.59 µM

SMILES: O=C(O)c1nnsc1-c1ccc(-c2snnc2C(=O)O)cc1
- TGI [1]: > 100 µM
- TGI [2]: > 100 µM
- TGI [3]: > 100 µM
- TGI [4]: > 100 µM
- TGI [5]: > 100 µM
- TGI [6]: > 100 µM
- TGI [7]: > 100 µM
- TGI [8]: > 100 µM
- TGI [9]: > 100 µM
- TGI [10]: 68.6 µM

SMILES: COc1ccc(Sc2[nH]c(C(C)=O)c3ccccc23)cc1
- GI50 [1]: 13 µM
- TGI [1]: 31.2 µM
- GI50 [2]: 6.49 µM
- TGI [2]: 19.7 µM
- GI50 [3]: 11 µM
- TGI [3]: 24.7 µM
- GI50 [4]: 16 µM
- TGI [4]: 36.8 µM
- GI50 [5]: 2.4 µM
- TGI [5]: 18.1 µM
- GI50 [6]: 11.9 µM
- TGI [6]: 25.1 µM
- GI50 [7]: 11.8 µM
- TGI [7]: 31.8 µM
- GI50 [8]: 11.1 µM
- TGI [8]: 28.4 µM
- GI50 [9]: 10.9 µM
- TGI [9]: 32.6 µM
- GI50 [10]: 10.9 µM
- TGI [10]: 33.4 µM
